Assay results from patent publication US20070134156A1, “Fatigue evaluation apparatus, fatigue evaluation method, and application thereof” (SOIKEN INC., priority 2004, published 2007).

Experiment: Four hours of driving-simulator combined fatigue loading after intake of tryptophan; concentration of tryptophan in plasma
Assay type: in vivo, human
Text: Twelve healthy males who were in their twenties served as subjects. Each of the subjects was right-handed, had at least one year of experience as a licensed driver, and drove an ordinary motor vehicle at least once a week. Further, patients with sinus problems, smokers, users of drugs (such as caffeinated or spiced food products and anti-allergic drugs, which affect a central nervous system) were excluded.
The subject was subjected to driving work loading by using a driving simulator (ACCESS MASTER AM2330 manufactured by Tasknet Inc.).
In order to study an effect of tryptophan on fatigue, each of the subjects in a tryptophan group who received tryptophan before loading was subjected to four hours of simulator driving without a break, and each of the subjects in a placebo group who received a placebo before loading was subjected to four hours of simulator driving without a break. The same subject received 5 mg/kg of tryptophan or a placebo at least one week apart, and participated in the experiment.
Blood sample was taken from the subjects according to the experimental schedule shown in Table 4 so as to measure concentrations of amino acids in their plasma.

With `N[C@@H](Cc1c[nH]c2ccccc12)C(=O)O` [tryptophan] the concentration at 4 h (male, human, plasma, oral, tryptophan group, 5 mg/kg tryptophan taken before loading, after four hours of simulator driving, healthy males) was 39 µM, the “concentration of tryptophan in plasma before fatigue loading” value (tryptophan group (5 mg/kg tryptophan), blood sampled before intake and before four hours of simulator driving, healthy males) was 43 µM and the “change in concentration of tryptophan in plasma between before and after fatigue loading” value (tryptophan group, 5 mg/kg before loading, four hours of simulator driving, placebo group showed a significant decrease) was “no significant decrease”.
